Key:
[1] = Fluorescence correlation spectroscopy (FCS) diffusion time; assay type: physicochemical; conditions: mean±STD (n=3)
Excerpt: FCS is a quantitative technique, which detects fluorescence intensity fluctuations as fluorescent molecules diffuse through a small observation volume (<1 femtoliter). Statistical analysis of these fluorescence intensity fluctuations allows simultaneous determination of the number of fluorescent species in the system and their mobility.
In our case the observation volume is defined by the focal volume of a laser scanning microscope, while the statistical analysis of the intensity trace is calculated as follows: […]
The correlation curve obtained from the experiment is fitted with a mathematical function which describes the fluorescence intensity fluctuations in the observation volume according to Brownian diffusion and it also accounts for the photophysical characteristics of the dye:
where N is the average number of fluorescent particles in the observation volume, T is the fraction of fluorophores in the triplet state, τT is the lifetime of the triplet state of the fluorophore, τD is the characteristic diffusion time of the fluorophore, ω0 the waist radius of the laser focus. […]
The waist of the focus ω0 was determined by fitting the autocorrelation curve obtained in the same experimental conditions using free Alexa Fluor 488 [22]. In the case of labeled peptide binding to the nanoparticles the correlation curves were analyzed using the two component model as was described previously.

[2] = Surface plasmon resonance of NBD-Linker incorporation into PFC nanoparticles; assay type: binding; conditions: NBD-Linker on immobilized PFC nanoparticles, two-state model; read-out: dissociation constant of the entire process
Description: The kinetics of NBD-Linker incorporation into lipid monolayers of PFC nanoparticles was studied by surface plasmon resonance (SPR). SPR detects change in the […] of a surface (Biacore-X 100 and carboxymethylated dextran chip L1 from Biacore Inc, Piscataway, N.J.). A uniform lipid monolayer on a L1 chip was created by injecting PFC nanoparticles (3 μl/min) for 30 minutes. Loosely deposited nanoparticles were removed by performing extra washing steps after immobilization to ensure a stable baseline. Complete coverage was confirmed by injecting the bovine serum albumin (1 mg/ml in PBS) at 15 μl/min for 2 minutes. Different peptides in selected concentrations were injected at a flow rate of 30 μl/min for 1 minute. At the end of each experiment the chip was regenerated by two consecutive injections of 3-[(3-cholamidopropyl)dimethylammonio]-1-propanesulfonate, CHAPS (50 μl, 100 μl/min). The data were analyzed with BiaEvaluation software (Biacore Inc, Piscataway, N.J.). A two-state model, [17].
To investigate the release rate of the NBD-Linker from the PFC nanoparticles, surface plasma resonance experiments were performed with a Biacore X 100, which allows quantitative analysis of interaction between peptide and lipid membrane. […] We consistently recorded two populations of peptides in the peptide-lipid interactions. […]

[3] = Dynamic light scattering size and zeta potential of peptide-loaded PFOB/PFC nanoparticles; assay type: physicochemical; conditions: PFC nanoparticles without and with various amount of peptide loading
Description: The size distributions of the nanoparticles with or without the linker peptide were analyzed by dynamic light scattering (Brookhaven Instruments Corp., Holtsville, N.Y.). Zeta potential (ζ) values were determined with a Brookhaven Instruments PALS Zeta Potential Analyzer (Brookhaven Instruments Corp., Holtsville, N.Y.). Data were acquired in the phase-analysis light scattering (PALS) mode following solution equilibration at 25° C. […] This change further confirms the insertion of the linker peptide 1 into the PFOB nanoparticles. Furthermore, the structural integrity of linker peptide 1 inserted PFOB nanoparticles was confirmed by transmission electron microscopy.
The size distributions of the nanoparticles with or without cargo incorporated were analyzed by dynamic light scattering (Brookhaven Instruments Corp., Holtsville, N.Y.). The size distribution was plotted by particle number. Zeta potential (ζ) values were determined with a Brookhaven Instruments PALS Zeta Potential Analyzer (Brookhaven Instruments Corp., Holtsville, N.Y.). Data were acquired in the phase-analysis light scattering (PALS) mode following solution equilibration at 25° C.

| Compound | diffusion time [1] [μsec] | Kd [2] [nM] | mean diameters [3] |
| --- | --- | --- | --- |
| N=c1ccc2c(-c3ccc(C(=O)O)cc3C(=O)O)c3ccc(N)c(S(=O)(=O)O)c3oc-2c1S(=O)(=O)O [Alexa Fluor 488] | 35.8±1.4 |  |  |
| NBD peptide (TALDWSWLQTE) fused onto the N-terminal of linker peptide (VLTTGLPALISWIKRKRQQ) with two glycines as a spacer [NBD-Linker] |  | 140 | equivalent |

Source: US8617516B2, “Universal anchor peptide for nanoparticles” (Washington University, priority 2008, dated 2013)
